{"source": "patent US10278954B2", "about": "“Method of treating a CNS disorder using a water-soluble histone deacetylase inhibitor” (priority 2016, dated 2019)", "key": {"synaptophysin": {"system": "synaptophysin", "assay": "Synaptophysin ELISA of protein isolated from rat brain", "assay_type": "in vivo", "details": "21 days after infusion; 1 way ANOVA p>0.05", "method": "A) Immunofluorescent microscopy of fixed rat brain for neurons (NeuN) and glia (GFAP) 21 days after acute striatal infusion of 5 μl of either aCSF (control), F127-aCSF or F127-PAN. B) Synaptophysin ELISA of protein isolated from rat brain 21 days after infusion comparing F127-aCSF, F127-PAN and Panobinostat in DMSO against aCSF and untreated controls. […] (1 way ANOVA p>0.05)."}, "SF7761 glioma cell line": {"system": "SF7761 glioma cell line", "assay": "MTT assay, SF7761", "assay_type": "cell-based, human", "method": "(§1) Two independent glioma cell lines (A) SF7761 and (B) SF8628 were dosed with sodium valproate for 72 h, then subjected to an MTT assay to assess the effect of the drug on proliferation of glioma cells. Results are expressed as a % relative to untreated control. […] Two glioma cell lines (A) SF7761 and (B) SF8628 were dosed with sodium valproate for 72 h, followed by 6 h of carboplatin, after which, the drug was washed out and given fresh sodium valproate. Proliferation was assessed by MTT assay, and results expressed as a % relative to the untreated control cells."}, "SF8628 glioma cell line": {"system": "SF8628 glioma cell line", "assay": "MTT assay, SF8628", "assay_type": "cell-based, human", "method": "as §1"}, "glioma cell line": {"system": "glioma cell line", "assay": "MTT assay, 6 h sequential dosing on two consecutive days", "assay_type": "cell-based, human", "method": "One glioma cell line thus far has been tested with (A) 6 h dosing of VPA repeated one two consecutive days, followed by assessment of proliferation by MTT."}, "[1]": {"system": "normal hippocampal neuronal and glial cells", "assay": "Toxicity in normal hippocampal cultures (B3 tubulin, GFAP staining)", "assay_type": "cell-based", "details": "6 h dosing, assayed 72 h after", "method": "Normal hippocampal cells were plated onto coverslips and grown for 72 h prior to dosing with sodium valproate to assess the toxicity of the drug against normal neuronal and glial cells. Cells were drugged with sodium valproate for 6 h, after which time the drug was washed off and fresh media added. Cells were further incubated for 72 h prior to fixing and staining with B3 tubulin (neuronal marker) and GFAP (glial cell marker) to determine to the toxicity of sodium valproate."}, "[2]": {"details": "pre-conditioning with sodium valproate prior to carboplatin"}, "[3]": {"details": "sodium valproate 72 h, then 6 h carboplatin"}}, "data": [{"smiles": "Cc1[nH]c2ccccc2c1CCNCc1ccc(/C=C/C(=O)NO)cc1", "note": "[Panobinostat in DMSO, panobinostat]", "values": [{"measurement": "synaptophysin concentration against aCSF and untreated controls", "setting": "synaptophysin", "value": "No significant difference detected"}]}, {"smiles": "CCCC(CCC)C(=O)[O-].[Na+]", "note": "[sodium valproate]", "values": [{"measurement": "cytotoxicity (proliferation, % relative to untreated control)", "setting": "SF7761 glioma cell line; 72 h dosing", "value": "causes cytotoxicity to glioma cells in a dose dependent manner"}, {"measurement": "combination index (CI)", "setting": "SF7761 glioma cell line; [2]", "value": "below 1"}, {"measurement": "effect of pre-dosing on cytotoxicity of carboplatin", "setting": "SF7761 glioma cell line; [3]", "value": "potentiates the cytotoxicity of carboplatin"}, {"measurement": "cytotoxicity (proliferation, % relative to untreated control)", "setting": "SF8628 glioma cell line; 72 h dosing", "value": "causes cytotoxicity to glioma cells in a dose dependent manner"}, {"measurement": "combination index (CI)", "setting": "SF8628 glioma cell line; [2]", "value": "below 1"}, {"measurement": "effect of pre-dosing on cytotoxicity of carboplatin", "setting": "SF8628 glioma cell line; [3]", "value": "potentiates the cytotoxicity of carboplatin"}, {"measurement": "cell viability, % relative to control", "setting": "glioma cell line; 6 h dosing on two consecutive days", "value": "dose dependent decrease in cell viability"}, {"measurement": "cell viability, combined dosing with carboplatin", "setting": "glioma cell line; carboplatin and sodium valproate 6 h on two consecutive days", "value": "greater decrease in cell viability compared with carboplatin alone"}, {"measurement": "glial toxicity (GFAP)", "setting": "[1]; 20 mM", "value": "Some toxicity"}, {"measurement": "neuronal toxicity (B3 tubulin)", "setting": "[1]", "value": "minimal neuronal toxicity"}]}]}
